Data: patent publication US20250346584A1, “NOVEL KAPPA OPIOID LIGANDS” (The Scripps Research Institute, priority 2012, published 2025)

biological target: kappa opioid receptor (OPRK1) (Homo sapiens (Human), UniProt P41145); assay: OPRK1 antagonist assay (b-arrestin-2-TEV / b-lactamase reporter cell line, EC80 U-50488 challenge); format: cell-based; details: read-out: IC50 nM (% inhib if other than 50%); antagonist mode vs EC80 U-50488; NA = not active at concentrations up to 10 μM
Sequence (P41145 whole entry): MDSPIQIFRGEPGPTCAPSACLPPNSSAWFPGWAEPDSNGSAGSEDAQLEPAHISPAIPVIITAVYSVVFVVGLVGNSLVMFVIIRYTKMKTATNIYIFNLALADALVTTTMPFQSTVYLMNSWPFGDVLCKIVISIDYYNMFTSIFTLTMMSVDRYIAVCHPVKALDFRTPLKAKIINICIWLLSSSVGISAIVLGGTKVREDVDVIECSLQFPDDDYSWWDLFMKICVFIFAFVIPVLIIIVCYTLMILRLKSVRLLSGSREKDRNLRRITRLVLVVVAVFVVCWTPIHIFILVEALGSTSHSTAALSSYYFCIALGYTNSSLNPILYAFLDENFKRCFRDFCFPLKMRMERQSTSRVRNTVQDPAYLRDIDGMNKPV

| SMILES | IC50 [nM] |
| --- | --- |
| OCc1cc(Br)cnc1N1CCC(NC2CCCCC2)CC1 [compound 76] | 11300 |
| COC1CN(c2nc(CO)ccc2-c2nc(C)no2)CCC1NC1CCCCC1 (stereo not shown) [compound 425] | 60 |
| CO[C@@H]1CN(c2nc3ccc(C)cc3cc2-c2noc(C)n2)CC[C@@H]1NC1CCCCC1 [compound 382] | 83 |
| Cc1ccc2nc(N3CCC(NC4CC5CCC4C5)CC3)c(-c3nc(C)no3)cc2c1 (stereo not shown) [compound 265] | 49 |
| Cc1noc(-c2cc(C3CC3)cnc2N2CC[C@@H](NC3CCCCC3)[C@H](O)C2)n1 [compound 155] | 1300 |
| CCOC(=O)c1cc(Br)cnc1N1CC[C@H](NC2CCCCC2)[C@@H](O)C1 [compound 540] | 16 |
| COC1CN(c2nc3ccccc3cc2-c2nc(C)no2)CCC1NCC(C)C (stereo not shown) [compound 374] | 45 |
| Cc1ccc2nc(N3CCC(NC4CCCC[C@@H]4O)CC3)c(-c3noc(C)n3)cc2c1 (stereo partly shown) [compound 437] | 17 |
| COC(=O)c1cc(Br)cnc1N1CCC(N[C@@H]2CCCCC[C@H]2O)CC1 [compound 27] | 473 |
| COC1CN(c2nc3ccc(C)cc3cc2C(=O)OC(C)C)CCC1NC1CCCCC1 (stereo not shown) [compound 282] | 38 |
| CO[C@H]1CN(c2nc3cc(F)c(C)cc3cc2-c2nc(C)no2)CC[C@H]1NC1CCCCC1 [compound 496] | 54 |
| CC(=O)c1cc2cc(C)ccc2nc1N1CCC(NC2CCCCC2)CC1 [compound 479] | 211 |
| COC1CN(c2nc3ccc(Cl)cc3cc2-c2nc(C)no2)CCC1NC1CCCCC1 (stereo not shown) [compound 240] | 14 |
| CC(=O)c1cc(Br)cnc1N1CCC(NC2CCCCC2)C(CO)C1 (stereo not shown) [compound 97] | 2000 |
| COC(=O)c1cc(Br)cnc1N1CCC(NC2CCCC2)C(O)C1 (stereo not shown) [compound 44] | 79 |
| CO[C@H]1CN(c2nc(C)c(C)cc2-c2nc(C)no2)CC[C@H]1NC1CCCCC1 [compound 300] | 16 |
| CCc1noc(-c2cc(Br)cnc2N2CC[C@@H](NC3CCCCC3)[C@H](O)C2)n1 [compound 137] | 1600 |
| CO[C@H]1CN(c2nc3cc(F)ccc3cc2-c2nc(C)no2)CC[C@H]1NC1CCCCC1 [compound 508] | 5 |
| Cc1noc(-c2nc3ccccc3nc2N2CC[C@@H](NC3CCCCC3)[C@H](O)C2)n1 [compound 188] | 187 |
| CCOC(=O)c1cccnc1N1CCC(NC2CCCCC2)C1 (stereo not shown) [compound 25] | 1200 |
| COC1CN(c2nc3ccccc3cc2-c2ncco2)CCC1NC1CCCCC1 (stereo not shown) [compound 225] | 70 |
| COC(=O)c1cc(Br)cnc1N1CCC(NC2CCCCCC2)C(C(=O)OC)C1 (stereo not shown) [compound 118] | 661 |

| SMILES | IC50 [nM] |
| --- | --- |
| COC(=O)c1cc(Br)cnc1N1CCC(NC2CCCC2O)CC1 (stereo not shown) [compound 3] | 287 |
| COC(=O)c1cc(Br)cnc1N1CCC(NC2CCCCCC2)C(O)C1 (stereo not shown) [compound 60] | 68 |
| COC(=O)c1cnc(N2CCC(NC3CCCCC3)CC2)c([N+](=O)[O-])c1 [C36] | 17000 |
| Cc1cnc(N2CC[C@@H](NC3CCCCC3)[C@H](O)C2)c(C#N)c1 [C67] | 37000 |
| Cc1nc(-c2cc3ccc(F)cc3nc2N2CCC(NC3CCCC3)CC2)no1 [compound 481] | 10 |
| COC1CN(c2nc3ccccc3cc2C2=NCC(C)O2)CCC1NC1CCCCC1 (stereo not shown) [compound 258] | 7160 |
| COC1CN(c2nc(C)c(C)cc2-c2nc(C)no2)CCC1NC1CCCCC1 (stereo not shown) [compound 178] | 483 |
| COC1CN(c2nc3ccccc3cc2-c2nc(C)no2)CCC1NC1CCOCC1 (stereo not shown) [compound 325] | 8 |
| CO[C@H]1CN(c2nc3ccccc3cc2-c2nc(C)no2)CC[C@H]1NC1CCCCC1 [compound 295] | 2 |
| Cc1noc(-c2cc3cccc(C)c3nc2N2CCC(NC3CCOCC3)CC2)n1 [compound 275] | 98 |
| COC1CN(c2ncc(C)cc2-c2nccc(C)n2)CCC1NC1CCCCC1 (stereo not shown) [compound 384] | 16700 |
| Cc1ccc2nc(N3CCC(NCC4CCCO4)CC3)c(-c3nc(C)no3)cc2c1 (stereo not shown) [compound 262] | 60 |
| Cc1noc(-c2cc3ccccc3nc2N2CCC(NC3CCCCC3)C2)n1 (stereo not shown) [compound 212] | 267 |
| COC(=O)c1cc(C)nnc1N1CC[C@@H](NC2CCCCC2)[C@H](O)C1 [compound 166] | 32 |
| Cc1noc(-c2cc3ccccc3nc2N2CC[C@@H](NC3CCCCC3)[C@H](O)C2)n1 [compound 172] | 22 |
| COC(=O)c1cc(Br)cnc1N1CCC(NC2CCCC2)C(C(=O)OC)C1 (stereo not shown) [compound 114] | 1200 |
| Cc1noc(-c2cc3cc(F)ccc3nc2N2CCC(NC3CCCCC3)C(CO)C2)n1 (stereo not shown) [compound 243] | 22 |
| Cc1ccc2cc(-c3nc(C)no3)c(N3CCC(NC4CCCCC4)C(CO)C3)nc2c1 (stereo not shown) [compound 229] | 5 |
| Cc1ccc2nc(N3CCC(N(C)C4CCOCC4)CC3)c(-c3nc(C)no3)cc2c1 [compound 267] | 180 |
| CCC1(CO)CN(c2ncc(C)cc2-c2nc(C)no2)CCC1NC1CCCCC1 (stereo not shown) [compound 182] | 76 |
| Cc1noc(-c2cc3ccccc3nc2N2CC[C@@H](NC3CCCCC3)[C@H](O)C2)n1 [compound 192] | 199 |
| Cc1cc(-c2nc(C)no2)c(N2CC[C@@H](NC3CCCCC3)[C@H](O)C2)nn1 [compound 175] | 46 |

| SMILES | IC50 [nM] |
| --- | --- |
| COC(=O)c1cc(Cl)cnc1N1CC[C@H](NC2CCCCC2)[C@@H](O)C1 [compound 111] | 281 |
| CCOC(=O)c1cc(Br)cnc1N1CCC(NC2CCCCC2)C(CO)C1 (stereo not shown) [compound 69] | 53 |
| COC(=O)c1cc(F)cnc1N1CCC(NC2CCCCC2)CC1 [compound 72] | 6600 |
| Cc1cnc(N2CCC(NC3CCCCC3)C(C)C2)c(-c2nc(C)no2)c1 (stereo not shown) [compound 194] | 180 |
| COC(=O)c1cc(I)cnc1N1CCC(NC2CCOCC2)C(CO)C1 (stereo not shown) [compound 90] | 186 |
| COC1CN(c2nc3ccc(C)cc3cc2C(=O)N(C)C)CCC1NC1CCCCC1 (stereo not shown) [compound 279] | 96 |
| CO[C@H]1CN(c2nc3ccc(C)cc3cc2-c2noc(C)n2)CC[C@H]1NC1CCCCC1 [compound 338] | 0.99 |
| Cc1cnc(N2CCC(NC3CCCC3)C(CO)C2)c(-c2nc(C)no2)c1 (stereo not shown) [compound 201] | 116 |
| OCC1CN(c2nc3ccccc3cc2-c2ncccn2)CCC1NC1CCCCC1 (stereo not shown) [compound 264] | 56 |
| Cc1ccc2nc(N3CCC(NC4CCCC4)CC3)c(-c3ccncn3)cc2c1 [compound 533] | 263 |
| COC(=O)c1cc(Br)cnc1N1CC(NC2CCCCC2)C1 [compound 67] | 1400 |
| CO[C@H]1CN(c2nc3ccc(F)cc3cc2-c2nc(C)no2)CC[C@H]1NC1CCCCC1 [compound 296] | 10 |
| COC1CN(c2nnc(C)cc2C(=O)OC(C)C)CCC1NCC(C)C (stereo not shown) [compound 408] | 57 |
| COC1CN(c2ncc(C(F)(F)F)cc2-c2nc(C)no2)CCC1NC1CCCCC1 (stereo not shown) [compound 174] | 180 |
| COC1CN(c2nc3ccc(C)cc3cc2-c2nc(C)no2)CCC1NC1CCCCC1 (stereo not shown) [compound 214] | 3 |
| CO[C@H]1CN(c2nnc(C)cc2C(=O)OC(C)C)CC[C@H]1NC1CCCCC1 [compound 411] | 10 |
| COC(=O)c1cc(Br)cnc1N1CCC(CNC2CCCCC2)CC1 [compound 31] | 3500 |
| Cc1ccc2nc(N3CCC(NC4CCC(F)(F)CC4)CC3)c(-c3noc(C)n3)cc2c1 [compound 436] | 26 |
| COC(=O)c1cc2ccccc2nc1N1CC[C@@H](NC2CCCCC2)[C@H](O)C1 [compound 160] | 209 |
| COC(=O)c1cc(Br)cnc1N1CC2CN(C3CCCCC3)CC2C1 (stereo not shown) [compound 49] | 1300 |
| CO[C@@H]1CN(c2nc3ccc(F)cc3cc2-c2nc(C)no2)CC[C@@H]1NC1CCCCC1 [compound 331] | 27 |
| CCOC(=O)c1cc(C(=O)OC)c(C)nc1N1CC[C@@H](NC2CCCCC2)[C@H](O)C1 [compound 119] | 12 |

| SMILES | IC50 [nM] |
| --- | --- |
| CCOC(=O)c1cc(C(=O)OC)c(C)nc1N1CCC(NC2CCCCC2)CC1 [compound 92] | 2600 |
| Cc1noc(-c2cnc(N3CC[C@@H](NC4CCCCC4)[C@H](O)C3)c(C)c2)n1 [compound 177] | > 20 |
| CO[C@H]1CN(c2nc3ccc(C)cc3cc2-c2ccc(C)o2)CC[C@H]1NC1CCCCC1 [compound 497] | 48 |
| CCOC(=O)c1noc(-c2cc3cc(C)ccc3nc2N2CCC(NC3CCCCC3)C(CO)C2)n1 (stereo not shown) [C91] | 17700 |
| Cc1ccc2cc(-c3nc(C)no3)c(N3CC[C@@H](NC4CCCCC4)[C@H](O)C3)nc2c1 [compound 227] | 7 |
| CCc1cnc(N2CCC(NC3CCCCC3)C(O)C2)c(C(=O)OC)c1 (stereo not shown) [compound 133] | 272 |
| COC1CN(c2nc3cc(C)ccc3cc2-c2nc(C)no2)CCC1NC1CCCCC1 (stereo not shown) [compound 228] | 21 |
| COC(=O)c1cc(Br)cnc1N1CC(O)C(NC2CCCCC2)C(O)C1 (stereo not shown) [compound 62] | 2700 |
| CCOC(=O)c1cc(C(=O)OC)c(C)nc1N1CCC(NC2CCCCC2)C(O)C1 (stereo not shown) [compound 94] | 61 |
| CCOC(=O)c1nc2cc(C)ccc2nc1N1CCC(NC2CCCCC2)C(OC)C1 (stereo not shown) [compound 353] | 23 |
| Cc1ccc2nc(N3CCC(NCC(C)C)CC3)c(-c3nc(C4CC4)no3)cc2c1 [compound 354] | 4.2 |
| Cc1cnc(N2CCC(NC3CCCCC3)CC2)c(-c2ccncn2)c1 [compound 517] | 1140 |
| Cc1noc(-c2cc(C)c(C)nc2N2CCC(NC3CCCC3)C(CO)C2)n1 (stereo not shown) [compound 223] | 13 |
| COC(=O)c1cccnc1N1CC[C@@H](NC2CCCCC2)[C@H](O)C1 [compound 148] | 5800 |
| Cc1cnc(-c2cc3ccccc3nc2N2CCC(NC3CCCCC3)CC2)cn1 [compound 466] | 24 |
| CC(C)OC(=O)c1cc(Br)cnc1N1CCC(NC2CCCCC2)CC1 [compound 39] | 398 |
| Cc1ccc2nc(N3CCC(NCC4CCCCC4)CC3)c(-c3nc(C)no3)cc2c1 [compound 261] | 1470 |
| COC(=O)c1cc(Br)cnc1N1CCC(NC2CCCCC2)C1 (stereo not shown) [compound 14] | 185 |
| Cc1noc(-c2cc3c(nc2N2CCC(NC4CCCCC4)C(CO)C2)CCCC3)n1 (stereo not shown) [compound 191] | 420 |
